Consider four molecules from patent US20230116703A1, “NOVEL ERGOLINES AND METHODS OF TREATING MOOD DISORDERS” (priority 2021, published 2023).

Read-outs that look alike come from different tables or passages of the source. Some results are limits rather than exact numbers.

A short description of series [1]: Metabolic stability in human liver microsomes (HLM). The series is classed as in vitro ADME. Conditions: both sexes, human, pH 7.4, 0.50 mg protein per mL. The text has this:
HLM Stability. Pooled HLM from adult male and female donors (Corning 452117) were used.
On the technique in general: Liver microsomes are vesicles of endoplasmic reticulum, rich in cytochrome P450 enzymes.

A further series concerns the target T1, 5-HT1A receptor (Homo sapiens, UniProt P08908).
T1 construct: host or cells: CHO cells
T1 sequence (P08908 1-422): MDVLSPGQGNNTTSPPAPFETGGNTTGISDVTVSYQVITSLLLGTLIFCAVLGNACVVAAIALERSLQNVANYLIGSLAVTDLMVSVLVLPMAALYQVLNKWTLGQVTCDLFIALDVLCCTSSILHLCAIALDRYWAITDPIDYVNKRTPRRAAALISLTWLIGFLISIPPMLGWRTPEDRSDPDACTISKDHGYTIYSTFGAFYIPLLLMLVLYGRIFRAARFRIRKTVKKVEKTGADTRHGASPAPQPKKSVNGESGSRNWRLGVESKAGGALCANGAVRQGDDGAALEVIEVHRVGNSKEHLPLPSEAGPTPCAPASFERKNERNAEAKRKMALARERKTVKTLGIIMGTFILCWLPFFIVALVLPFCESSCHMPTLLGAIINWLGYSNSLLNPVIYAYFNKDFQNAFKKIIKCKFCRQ
Nature of the series: cell-based. The protocol:
(§1) Functional Assays at 5-HT2A, 5-HT2B, and 5-HT1A. Agonist activity at 5-HT2A, 5-HT2B, and 5-HT1A receptors was determined using a FLIPR Ca^2+ flux assay at WuXi AppTec (Hong Kong) Limited according to their standard protocols. Briefly, stably transfected cells expressing the receptor of interest (HEK293 for 5-HT2A and 5-HT2B; CHO cells for 5-HT1A) were grown and plated in a 384 well plate and incubated at 37° C. and 5% CO2 overnight. A solution of 250 mM probenecid in 1 mL FLIPR assay buffer was prepared fresh. This was combined with a fluorescent dye (Fluo-4 Direct™) to make a final assay concentration of 2.5 mM. […] The fluorescent dye was then added to the assay plate along with assay buffer to a final volume of 40 μL. The cell plate was incubated for 50 min at 37° C. and 5% CO2 and placed into the FLIPR Tetra along with the compound plate. 10 μL of references and compounds were then transferred from the compound plate into the cell plate and the fluorescent signal was read.

For another series, the target named is T2, 5-HT2B receptor (Homo sapiens, UniProt P41595).
T2 construct: host or cells: HEK293
T2 sequence (P41595 whole entry): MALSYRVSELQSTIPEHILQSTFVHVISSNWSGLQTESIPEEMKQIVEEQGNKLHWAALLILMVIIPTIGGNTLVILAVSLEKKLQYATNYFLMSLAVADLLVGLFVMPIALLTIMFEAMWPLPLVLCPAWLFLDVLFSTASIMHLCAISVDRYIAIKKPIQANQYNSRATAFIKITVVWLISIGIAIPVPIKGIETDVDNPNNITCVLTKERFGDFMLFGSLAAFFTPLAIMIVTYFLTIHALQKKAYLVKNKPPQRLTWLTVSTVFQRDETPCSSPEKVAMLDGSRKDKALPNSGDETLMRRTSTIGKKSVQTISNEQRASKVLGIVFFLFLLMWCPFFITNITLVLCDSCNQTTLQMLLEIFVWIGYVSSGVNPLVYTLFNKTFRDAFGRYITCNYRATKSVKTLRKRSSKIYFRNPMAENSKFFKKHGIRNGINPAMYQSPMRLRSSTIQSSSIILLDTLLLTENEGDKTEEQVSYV
Nature of the series: cell-based. On the procedure:
as §1

A further series concerns the target 5-HT1B receptor (Homo sapiens, UniProt P28222). Nature of the series: cAMP accumulation agonist assay at 5-HT1B. The series is classed as cell-based. The protocol:
Disclosed compounds were tested for agonist activity at several serotonin receptor subtypes (5-HT2A, […], 5-HT2C, and 5-HT1A) using Ca^2+ flux functional assays and the 5-HT1B receptor using a cAMP accumulation assay, with the results summarized in Table 4. […] Potent agonist activity was also observed at the other serotonin receptors tested, although the selectivity profile among the receptors varied across compounds. […]. However, at the same time, the N-propyl compounds were more efficacious agonists at 5-HT2B than the corresponding N-methyl compounds. The selectivity of disclosed compounds for 5-HT2A over 5-HT2C and 5-HT1A was less predictable and varied widely across compounds, ranging from ˜1:6 to ˜20:1 (2C/2A) in the case of 5-HT2C and from ˜1:4 to >100:1 (1A/2A) in the case of 5-HT1A. […] An azetidinyl amide substituent tended to increase potency at 5-HT1A relative to 5-HT2A.
Functional Assay at 5-HT1B. Agonist activity at 5-HT1B was determined using a cAMP accumulation protocol at WuXi AppTec (Hong Kong) Limited according to their standard protocols. Briefly, stably transfected cells were plated in an OptiPlate-384 well plate, incubated at RT for 60 mins, and cAMP standard solution (800 nM, 10 μL) was added to the blank well. Then, 10 μL detection reagent was added to each well, the plate incubated for 60 mins at RT, and the plate read using EnVision.
(Cyclic AMP is a second messenger, typically raised through Gs and lowered through Gi signalling.)

The target in series [2] is T3, 5-HT2A receptor (Homo sapiens, UniProt P28223).
T3 construct: host or cells: HEK293
T3 sequence (P28223 whole entry): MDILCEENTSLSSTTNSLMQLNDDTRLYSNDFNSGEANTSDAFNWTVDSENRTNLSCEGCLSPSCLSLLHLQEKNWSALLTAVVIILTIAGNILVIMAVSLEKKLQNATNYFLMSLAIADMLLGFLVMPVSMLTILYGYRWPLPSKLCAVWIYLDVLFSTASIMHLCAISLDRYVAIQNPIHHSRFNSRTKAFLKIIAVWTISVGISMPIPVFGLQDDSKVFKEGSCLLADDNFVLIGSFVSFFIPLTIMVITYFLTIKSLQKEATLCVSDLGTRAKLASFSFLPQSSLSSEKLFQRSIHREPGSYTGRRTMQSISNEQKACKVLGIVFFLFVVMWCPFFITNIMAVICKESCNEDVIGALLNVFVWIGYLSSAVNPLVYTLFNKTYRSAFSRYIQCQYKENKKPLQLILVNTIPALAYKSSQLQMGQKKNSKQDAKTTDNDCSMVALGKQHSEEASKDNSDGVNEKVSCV
The experiment in a line: biochemical. The series is classed as binding. The protocol:
Affinity of the test compounds for the 5-HT2A receptor was determined in radioligand binding experiments with [^3H]ketanserin by WuXi AppTec (Hong Kong) Limited, using methods adapted from the literature and under conditions described in Table 1.

Series [3] has as its target T3, 5-HT2A receptor. Nature of the series: cell-based. The series is classed as cell-based. On the procedure: as §1
Setting [4] is: Ca^2+ flux, agonist, read-out: 5-HT1A EC50.
Where [5] appears, read: Ca^2+ flux, agonist, read-out: 5-HT2B EC50.
Where [6] appears, read: cAMP, agonist, read-out: 5-HT1B EC50.
[7] abbreviates: 1 nM [^3H]ketanserin, HEK293 stable cell line, read-out: 5-HT2A Receptor Ki (nM) ([^3H]ketanserin).
Where [8] appears, read: Ca^2+ flux, agonist, read-out: 5-HT2A EC50.

Sequence of 5-HT1B receptor (P28222 whole entry): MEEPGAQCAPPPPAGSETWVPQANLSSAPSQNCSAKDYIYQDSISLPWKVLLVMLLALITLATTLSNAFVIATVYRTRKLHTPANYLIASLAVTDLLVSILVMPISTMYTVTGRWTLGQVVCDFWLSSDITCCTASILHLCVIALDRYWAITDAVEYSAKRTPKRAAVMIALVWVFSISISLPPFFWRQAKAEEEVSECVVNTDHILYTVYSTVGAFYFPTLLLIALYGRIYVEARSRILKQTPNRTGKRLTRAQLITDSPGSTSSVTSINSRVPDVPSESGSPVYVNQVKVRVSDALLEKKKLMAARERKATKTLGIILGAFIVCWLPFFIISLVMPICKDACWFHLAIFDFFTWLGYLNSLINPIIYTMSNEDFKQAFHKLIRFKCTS

Turning to `CCN(CC)C(=O)[C@@H]1C=C2c3cccc4[nH]cc(c34)C[C@H]2N(CCF)C1` [Compound 39, (6aR,9R)—N,N-diethyl-7-(2-fluoroethyl)-4,6,6a,7,8,9-hexahydroindolo[4,3-fg]quinoline-9-carboxamide], the half-life (usually how long it takes for the measured level to halve) at 1 μM in series [1] (pooled human liver microsomes) was 31.7 min. In addition, the microsomal CLint (in general, the capacity of the preparation to metabolise the compound, expressed as a volume cleared per time) at 1 μM in series [1] (pooled human liver microsomes) was 43.8 µL/min/mg. Moreover, the “5-HT1A % Act @ Max Dose” value at 5-HT1A receptor (Ca^2+ flux, agonist) came out at 91.21%. For the same molecule, the EC50 (in general, the concentration needed to bring the measured effect to its halfway point) at 5-HT1A receptor (setting [4]) was found to be 239 nM; on 5-HT2B receptor (setting [5]) it was 137 nM; on 5-HT1B receptor (setting [6]) it was 1100 nM; on 5-HT2A receptor [3] (setting [8]) it was 16.2 nM. On 5-HT2B receptor (Ca^2+ flux, agonist), the “5-HT2B % Act @ Max Dose” value is on record as 85.46%. In addition, the “5-HT1B % Act @ Max Dose” value at 5-HT1B receptor (cAMP, agonist) is listed as 99.00%. Besides, the Ki (usually the equilibrium dissociation constant of an inhibitor or competing ligand from its target) at 5-HT2A receptor [2] (setting [7]) is 4.54 nM. Further, at 5-HT2A receptor [3] (Ca^2+ flux, agonist), the “5-HT2A % Act @ Max Dose” value is 95.52%.

The molecule `CCCN1C[C@H](C(=O)N2[C@@H](C)C[C@@H]2C)C=C2c3cccc4[nH]c(Br)c(c34)C[C@H]21` [Compound 47, ((6aR,9R)-5-bromo-7-propyl-4,6,6a,7,8,9-hexahydroindolo[4,3-fg]quinolin-9-yl)((2S,4S)-2,4-dimethylazetidin-1-yl)methanone] displayed a half-life at 1 μM in series [1] (pooled human liver microsomes) of 5.6 min. This molecule gave a microsomal CLint at 1 μM in series [1] (pooled human liver microsomes) of 249 µL/min/mg. The “5-HT1A % Act @ Max Dose” value on 5-HT1A receptor (Ca^2+ flux, agonist) turned out to be 62.15%. The EC50 was 93.6 nM on 5-HT1A receptor (setting [4]), 1440 nM on 5-HT2B receptor (setting [5]), 4960 nM on 5-HT1B receptor (setting [6]) and 117 nM at 5-HT2A receptor [3] (setting [8]). In addition, the “5-HT2B % Act @ Max Dose” value on 5-HT2B receptor (Ca^2+ flux, agonist) was determined as 87.01%. For the same molecule, the “5-HT1B % Act @ Max Dose” value on 5-HT1B receptor (cAMP, agonist) is reported as 76.22%. Moreover, the Ki at 5-HT2A receptor [2] (setting [7]) was found to be 1.38 nM. Further, the “5-HT2A % Act @ Max Dose” value at 5-HT2A receptor [3] (Ca^2+ flux, agonist) is 57.01%.

Turning to `CCN(CC)C(=O)[C@@H]1C=C2c3cccc4[nH]c(Br)c(c34)C[C@H]2N(C)C1` [Compound 35, (6aR,9R)-5-bromo-N,N-diethyl-7-methyl-4,6,6a,7,8,9-hexahydroindolo[4,3-fg]quinoline-9-carboxamide], in series [1] (microsomes), the half-life at 1 μM was determined as 24.2 min. Moreover, in series [1] (microsomes), the microsomal CLint at 1 μM was found to be 57.4 µL/min/mg. The EC50 is over 3160 nM on 5-HT1A receptor, over 10000 nM at 5-HT2B receptor, 214 nM on 5-HT1B receptor and 66.4 nM on 5-HT2A receptor [3]. Besides, the “5-HT1A % Act @ Max Dose” value on 5-HT1A receptor (Ca^2+ flux, agonist) was −1.58%. Further, the “5-HT2B % Act @ Max Dose” value on 5-HT2B receptor (Ca^2+ flux, agonist) was −0.13%. In addition, the “5-HT1B % Act @ Max Dose” value on 5-HT1B receptor (cAMP, agonist) is recorded as 76.8%. The molecule also registered a Ki at 5-HT2A receptor [2] of 0.73 nM. Besides, at 5-HT2A receptor [3] (Ca^2+ flux, agonist), the “5-HT2A % Act @ Max Dose” value is on record as 67.74%.

In series [1] (pooled human liver microsomes), `CC[C@@H](C)NC(=O)[C@@H]1C=C2c3cccc4[nH]c(Br)c(c34)C[C@H]2N(C)C1` [Compound 43, (6aR,9R)-5-bromo-N—((R)-sec-butyl)-7-methyl-4,6,6a,7,8,9-hexahydroindolo[4,3-fg]quinoline-9-carboxamide] showed a half-life at 1 μM of 24.8 min. This molecule came in with a microsomal CLint at 1 μM in series [1] (pooled human liver microsomes) of 56 µL/min/mg. In addition, the “5-HT1A % Act @ Max Dose” value at 5-HT1A receptor (Ca^2+ flux, agonist) is given as 6.30%. The EC50 is over 10000 nM on 5-HT1A receptor (setting [4]), over 10000 nM at 5-HT2B receptor (setting [5]), 311 nM at 5-HT1B receptor (setting [6]) and 118 nM at 5-HT2A receptor [3] (setting [8]). In addition, at 5-HT2B receptor (Ca^2+ flux, agonist), the “5-HT2B % Act @ Max Dose” value is given as 1.00%. Besides, at 5-HT1B receptor (cAMP, agonist), the “5-HT1B % Act @ Max Dose” value is recorded as 83.76%. Also, at 5-HT2A receptor [2] (setting [7]), the Ki was determined as 1.13 nM. In addition, at 5-HT2A receptor [3] (Ca^2+ flux, agonist), the “5-HT2A % Act @ Max Dose” value is given as 39.32%.
